Experimental data from US20230348376A1 (TEIJIN PHARMA LIMITED, priority 2020, published 2023).

Molecular target: T1, human VDR (Homo sapiens, UniProt P11473)
T1 sequence (P11473 1-427): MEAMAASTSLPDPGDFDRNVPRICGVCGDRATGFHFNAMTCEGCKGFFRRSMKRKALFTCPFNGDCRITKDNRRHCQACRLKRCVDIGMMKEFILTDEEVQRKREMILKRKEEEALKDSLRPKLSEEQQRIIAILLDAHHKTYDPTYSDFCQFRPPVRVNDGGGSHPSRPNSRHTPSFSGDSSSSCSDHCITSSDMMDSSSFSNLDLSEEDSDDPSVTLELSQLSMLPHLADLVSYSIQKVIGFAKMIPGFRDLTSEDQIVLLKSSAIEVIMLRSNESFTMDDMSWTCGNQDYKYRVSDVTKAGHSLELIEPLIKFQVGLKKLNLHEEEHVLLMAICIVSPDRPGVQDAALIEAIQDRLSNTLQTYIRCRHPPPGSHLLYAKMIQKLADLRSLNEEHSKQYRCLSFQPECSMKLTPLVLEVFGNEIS
T1 sequence (P19793 1-462 partner): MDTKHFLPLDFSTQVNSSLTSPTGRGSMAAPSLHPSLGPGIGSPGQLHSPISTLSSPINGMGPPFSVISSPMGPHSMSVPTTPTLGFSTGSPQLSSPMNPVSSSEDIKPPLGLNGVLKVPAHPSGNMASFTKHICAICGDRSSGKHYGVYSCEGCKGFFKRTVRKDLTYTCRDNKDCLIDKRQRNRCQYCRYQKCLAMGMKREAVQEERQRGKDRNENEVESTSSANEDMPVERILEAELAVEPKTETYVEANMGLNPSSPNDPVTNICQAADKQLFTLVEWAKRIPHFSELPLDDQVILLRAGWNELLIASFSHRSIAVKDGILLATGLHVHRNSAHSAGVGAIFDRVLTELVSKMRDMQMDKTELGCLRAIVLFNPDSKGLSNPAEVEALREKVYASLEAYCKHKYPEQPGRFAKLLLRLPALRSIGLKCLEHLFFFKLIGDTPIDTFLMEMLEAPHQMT
Experiment: Evaluation of VDR transcription activity in human osteoblasts (HOS cells), luciferase reporter
Conditions: Activity (EC50, VDR transcription activity), HOS cells transfected with human VDR, human RXRα and DR3 luciferase reporter; 21 hours

SMILES | EC50
C[C@H](CCCN1CC[C@@H](C(F)F)C1)[C@H]1CC[C@H]2/C(=C/C=C3C[C@@H](O)C[C@H](O)C3)CCC[C@]12C [Compound B085, (1R,3R)-5-(2-((1R,3aS,7aR,E)-1-((R)-5-((R)-3-(difluoromethyl)pyrrolidin-1-yl)pentan-2-yl)-7a-methyloctahydro-4H-inden-4-ylidene)ethylidene)cyclohexane-1,3-diol] | 10 to 100 nM
COC1(C(F)(F)F)CN(C[C@@H](C)[C@H]2CC[C@H]3/C(=C/C=C4C[C@@H](O)C[C@H](O)C4)CCC[C@]23C)C1 [Compound A012, (1R,3R)-5-(2-((1R,3aS,7aR,E)-1-((S)-1-(3-methoxy-3-trifluoromethylazetidin-1-yl)propan-2-yl)-7a-methyloctahydro-4H-inden-4-ylidene)ethylidene)cyclohexane-1,3-diol] | 10 to 100 nM
C[C@H](CN1CC[C@](C)(O)C1)[C@H]1CC[C@H]2/C(=C/C=C3CC(O)C[C@H](O)C3)CCC[C@]12C (stereo in doubt) [Compound B072, (1R,3 S)-5-(2-((1R,3aS,7aR,E)-1-((S)-1-((S)-3-hydroxy-3-methylpyrrolidin-1-yl)propan-2-yl)-7a-methyloctahydro-4H-inden-4-ylidene)ethylidene)cyclohexane-1,3-diol] | 10 to 100 nM
C[C@H](CN1CC[C@H](CCC(F)F)C1)[C@H]1CC[C@H]2/C(=C/C=C3C[C@@H](O)C[C@H](O)C3)CCC[C@]12C [Compound B063, (1R,3R)-5-(2-((1R,3aS,7aR,E)-1-((S)-1-((S)-3-(3,3-difluoropropyl)pyrrolidin-1-yl)propan-2-yl)-7a-methyloctahydro-4H-inden-4-ylidene)ethylidene)cyclohexane-1,3-diol] | 10 to 100 nM
C=C1/C(=C\C=C2/CCC[C@]3(C)[C@@H]([C@H](C)CN4CC[C@@H](OCC(F)F)C4)CC[C@@H]23)C[C@@H](O)C[C@@H]1O [Compound B054, (1R,3S,Z)-5-(2-((1R,3aS,7aR,E)-1-((S)-1-((R)-3-(2,2-difluoroethoxy)pyrrolidin-1-yl)propan-2-yl)-7a-methyloctahydro-4H-inden-4-ylidene)ethylidene)-4-methylenecyclohexane-1,3-diol] | 10 to 100 nM
C=C1/C(=C\C=C2/CCC[C@]3(C)[C@@H]([C@H](C)CN4CC[C@@H](C(F)F)C4)CC[C@@H]23)C[C@@H](O)[C@H](C)[C@@H]1O [Compound B025, (1R,2S,3 S,Z)-5-(2-((1R,3aS,7aR,E)-1-((S)-1-((R)-3-(difluoromethyl)pyrrolidin-1-yl)propan-2-yl)-7a-methyloctahydro-4H-inden-4-ylidene)ethylidene)-2-methyl-4-methylenecyclohexane-1,3-diol] | 10 to 100 nM
C[C@H](CCN1CC[C@H](C(C)(F)F)C1)[C@H]1CC[C@H]2/C(=C/C=C3C[C@@H](O)C[C@H](O)C3)CCC[C@]12C [Compound B083, (1R,3R)-5-(2-((1R,3aS,7aR,E)-1-((R)-4-((S)-3-(1,1-difluoroethyl)pyrrolidin-1-yl)butan-2-yl)-7a-methyloctahydro-4H-inden-4-ylidene)ethylidene)cyclohexane-1,3-diol] | 10 to 100 nM
C=C1/C(=C\C=C2/CCC[C@]3(C)[C@@H]([C@H](C)CN4CC[C@H](C(C)(F)F)C4)CC[C@@H]23)C[C@@H](O)C[C@@H]1O [Compound B028, (1R,3S,Z)-5-(2-((1R,3aS,7aR,E)-1-((S)-1-((S)-3-(1,1-difluoroethyl)pyrrolidin-1-yl)propan-2-yl)-7a-methyloctahydro-4H-inden-4-ylidene)ethylidene)-4-methylenecyclohexane-1,3-diol] | < 1 nM
CC[C@@H]1CCN(C[C@@H](C)[C@H]2CC[C@H]3/C(=C/C=C4C[C@@H](O)C[C@H](O)C4)CCC[C@]23C)C1 [Compound B008, (1R,3R)-5-(2-((1R,3aS,7aR,E)-1-((S)-1-((R)-3-ethylpyrrolidin-1-yl)propan-2-yl)-7a-methyloctahydro-4H-inden-4-ylidene)ethylidene)cyclohexane-1,3-diol] | 10 to 100 nM
C=C1/C(=C\C=C2/CCC[C@]3(C)[C@@H]([C@H](C)CN4CC(O)(C(F)(F)F)C4)CC[C@@H]23)C[C@@H](O)C[C@@H]1O [Compound A009, (1R,3S,Z)-5-(2-((1R,3aS,7aR,E)-1-((S)-1-(3-hydroxy-3-(trifluoromethyl)azetidin-1-yl)propan-2-yl)-7a-methyloctahydro-4H-inden-4-ylidene)ethylidene)-4-methylenecyclohexane-1,3-diol] | 1 to 10 nM
C=C1/C(=C\C=C2/CCC[C@]3(C)[C@@H]([C@H](C)CN4CC[C@@H](OC(F)(F)F)C4)CC[C@@H]23)C[C@@H](O)C[C@@H]1O [Compound B066, (1R,3S,Z)-5-(2-((1R,3aS,7aR,E)-7a-methyl-1-((S)-1-((R)-3-(trifluoromethoxy)pyrrolidin-1-yl)propan-2-yl)octahydro-4H-inden-4-ylidene)ethylidene)-4-methylenecyclohexane-1,3-diol] | 10 to 100 nM

Second part, the molecule after the results:

EC50 | SMILES
10 to 100 nM | C=C1/C(=C\C=C2/CCC[C@]3(C)[C@@H]([C@H](C)CN4CCC[C@H](C(F)F)C4)CC[C@@H]23)C[C@@H](O)C[C@@H]1O [Compound C048, (1R,3S,Z)-5-(2-((1R,3aS,7aR,E)-1-((S)-1-((S)-3-(difluoromethyl)piperidin-1-yl)propan-2-yl)-7a-methyloctahydro-4H-inden-4-ylidene)ethylidene)-4-methylenecyclohexane-1,3-diol]
10 to 100 nM | C=C1[C@H](O)CC(=C/C=C2\CCC[C@]3(C)[C@@H]([C@H](C)CCN4CC[C@@H](CC(F)F)C4)CC[C@@H]23)C[C@H]1O [Compound B092, (1R,3R)-5-(2-((1R,3aS,7aR,E)-1-((R)-4-((S)-3-(2,2-difluoroethyl)pyrrolidin-1-yl)butan-2-yl)-7a-methyloctahydro-4H-inden-4-ylidene)ethylidene)-2-methylenecyclohexane-1,3-diol]
10 to 100 nM | C=C1/C(=C\C=C2/CCC[C@]3(C)[C@@H]([C@H](C)CCN4CCOC[C@H]4C)CC[C@@H]23)C[C@@H](O)CC1O (stereo in doubt) [Compound D046, (1R,3R,Z)-5-(2-((1R,3aS,7aR,E)-7a-methyl-1-((R)-4-((R)-3-methylmorpholino)butan-2-yl)octahydro-4H-inden-4-ylidene)ethylidene)-4-methylenecyclohexane-1,3-diol]
1 to 10 nM | C=C1/C(=C\C=C2/CCC[C@]3(C)[C@@H]([C@H](C)CN4CCCC(O)(C(F)(F)F)C4)CC[C@@H]23)C[C@@H](O)C[C@@H]1O (single isomer, unassigned) [Compound C030b]
100 to 1000 nM | C=C1/C(=C\C=C2/CCC[C@]3(C)[C@@H]([C@@H](C)CN4CC[C@H](C(F)F)C4)CC[C@@H]23)C[C@@H](O)C[C@@H]1O [Compound B095, (1R,3S,Z)-5-(2-((1R,3aS,7aR,E)-1-((R)-1-((S)-3-(difluoromethyl)pyrrolidin-1-yl)propan-2-yl)-7a-methyloctahydro-4H-inden-4-ylidene)ethylidene)-4-methylenecyclohexane-1,3-diol]
1 to 10 nM | C=C1[C@H](O)CC(=C/C=C2\CCC[C@]3(C)[C@@H]([C@H](C)CN4CCOC5(CC5)C4)CC[C@@H]23)C[C@H]1O [Compound D011, (1R,3R)-5-(2-((1R,3aS,7aR,E)-1-((S)-1-(4-oxa-7-azaspiro[2.5]octan-7-yl)propan-2-yl)-7a-methyloctahydro-4H-inden-4-ylidene)ethylidene)-2-methylenecyclohexane-1,3-diol]
